Reference: publication PMC7782499, “Progerinin, an optimized progerin-lamin A binding inhibitor, ameliorates premature senescence phenotypes of Hutchinson-Gilford progeria syndrome” (Communications Biology, 2021)

What was measured:
[1] = Liver microsomal stability, mouse; format: in vitro ADME; settings: liver microsomes, read-out: Liver microsomal stability (% remaining during 30min)
Method: (§1) For PK analysis, 5 mg/kg of JH4 in 10% DMSO, 5% Tween 90, and 95% saline solution were intravenously injected and 10 mg/kg of JH4 in 10% NMP and 90% PEG400 solution were orally delivered. At pre-set time-points, blood concentration of JH4 was determined by LC-MS/MS analysis[22],[23]. Other chemicals were also tested using similar protocol. In vitro ADME studies (plasma protein binding, CYP inhibition, microsomal stability, plasma stability, and hERG inhibition) were performed by New Drug Development Center (Daegu, Korea) using standard protocols[24],[25].

[2] = test system: HGPS cells; assay: RT-PCR of progerin/prelamin A, CENP-A, IL-6, IL-8, BRCA1 transcripts; format: cell-based, human
Method: For RT-PCR, total cellular RNA was extracted using RNA extraction kit (Qiagen). Gene expression studies were performed using cDNA synthesized from total RNA with MMLV RT (Invitrogen, Carlsbad, USA) and random hexamers. PCR from genomic DNA was perform using DiaStar Taq DNA polymerase (SolGent, Daejeon, Korea) and 50 ng of cDNA. Wild-type prelamin A cDNA was synthesized by PCR amplification using a forward primer, 5′-[…]-3′ and a reverse primer, 5′-[…]-3′. The thermal cycling conditions were as follows: 94°C for 3 min (activation), 94°C for 1 min (denaturation), 61°C for 1 min (annealing) and 72°C for 42 sec (extension) up to 35 cycles. The PCR products were analyzed through 2% agarose electrophoresis and DNA was visualized by ethidium bromide staining and UV photography. Levels of other transcripts were also performed with the following oligonucleotide primers: CENP-A, 5′-[…]-3′ and 5′-[…]-3′; BRCA1, 5′-[…]-3′ and 5′-[…]-3′; IL-6, 5′-[…]-3′ and 5′-[…]-3′; IL-8, 5′-[…]-3′ and 5′-[…]-3′ and GAPDH 5′-[…]-3′ and 5′-[…]-3′.
Fig. S3. Chemical screening with JH4 derivatives (a total of 53 chemicals except JH010 and SLC -D011 were used). A. Summarized tables for effects of JH4 derivatives. ‘+’ means s t re ngt h of binding affinity or expression level after treatment of chemicals. […]

[3] = target: CYP2D6 (Homo sapiens, UniProt P10635); assay: CYP inhibition, CYP2D6; format: in vitro ADME
Sequence of CYP2D6 (P10635 whole entry): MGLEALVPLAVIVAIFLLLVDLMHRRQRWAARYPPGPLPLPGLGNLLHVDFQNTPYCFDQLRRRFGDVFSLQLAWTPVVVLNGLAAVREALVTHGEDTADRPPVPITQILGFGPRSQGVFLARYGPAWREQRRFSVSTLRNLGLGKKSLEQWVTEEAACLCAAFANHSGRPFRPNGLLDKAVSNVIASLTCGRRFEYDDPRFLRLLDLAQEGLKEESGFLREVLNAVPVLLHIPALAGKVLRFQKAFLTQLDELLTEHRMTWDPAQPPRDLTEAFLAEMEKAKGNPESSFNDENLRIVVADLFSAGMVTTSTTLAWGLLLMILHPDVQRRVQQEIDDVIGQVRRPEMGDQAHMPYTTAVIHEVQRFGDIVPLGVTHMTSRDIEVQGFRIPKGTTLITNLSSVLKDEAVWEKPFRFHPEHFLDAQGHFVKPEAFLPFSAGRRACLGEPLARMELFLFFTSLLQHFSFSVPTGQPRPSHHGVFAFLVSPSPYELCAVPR
Method: as §1, with “At” for “For PK analysis, 5 mg/kg of JH4 in 10% DMSO, 5% Tween 90, and 95% saline solution were intravenously injected and 10 mg/kg of JH4 in 10% NMP and 90% PEG400 solution were orally delivered. At”

[4] = target: hERG (human Ether-à-go-go-Related Gene) (Homo sapiens, UniProt Q12809); assay: hERG inhibition; format: in vitro ADME
Sequence of hERG (human Ether-à-go-go-Related Gene) (Q12809 whole entry): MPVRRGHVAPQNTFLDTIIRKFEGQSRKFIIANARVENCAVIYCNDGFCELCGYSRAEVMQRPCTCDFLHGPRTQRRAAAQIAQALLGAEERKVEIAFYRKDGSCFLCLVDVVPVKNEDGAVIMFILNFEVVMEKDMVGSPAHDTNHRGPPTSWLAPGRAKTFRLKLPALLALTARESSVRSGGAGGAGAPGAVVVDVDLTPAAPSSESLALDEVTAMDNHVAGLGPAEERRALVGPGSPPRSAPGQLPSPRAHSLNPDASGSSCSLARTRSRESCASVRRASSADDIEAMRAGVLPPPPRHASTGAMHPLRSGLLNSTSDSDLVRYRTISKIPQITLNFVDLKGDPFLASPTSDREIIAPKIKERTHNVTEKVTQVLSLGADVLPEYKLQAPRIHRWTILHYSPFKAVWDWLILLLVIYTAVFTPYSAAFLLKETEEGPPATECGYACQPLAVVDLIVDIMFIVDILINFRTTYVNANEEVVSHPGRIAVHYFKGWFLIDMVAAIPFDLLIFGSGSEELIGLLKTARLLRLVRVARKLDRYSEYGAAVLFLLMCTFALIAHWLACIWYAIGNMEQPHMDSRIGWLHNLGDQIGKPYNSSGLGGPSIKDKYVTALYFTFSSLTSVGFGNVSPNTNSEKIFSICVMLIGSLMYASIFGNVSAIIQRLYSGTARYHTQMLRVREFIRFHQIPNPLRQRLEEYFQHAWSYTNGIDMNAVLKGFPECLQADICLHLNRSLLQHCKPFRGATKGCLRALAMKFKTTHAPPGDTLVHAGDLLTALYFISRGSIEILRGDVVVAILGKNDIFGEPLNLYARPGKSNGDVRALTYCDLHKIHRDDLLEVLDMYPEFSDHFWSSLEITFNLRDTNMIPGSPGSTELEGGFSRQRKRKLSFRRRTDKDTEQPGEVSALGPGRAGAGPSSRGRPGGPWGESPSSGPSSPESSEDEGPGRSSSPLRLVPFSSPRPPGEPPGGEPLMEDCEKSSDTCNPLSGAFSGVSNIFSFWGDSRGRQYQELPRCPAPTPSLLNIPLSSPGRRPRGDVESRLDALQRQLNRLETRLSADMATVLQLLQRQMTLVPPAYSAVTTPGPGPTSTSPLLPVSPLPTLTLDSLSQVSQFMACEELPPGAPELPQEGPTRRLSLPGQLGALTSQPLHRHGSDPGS
Method: as §1, with “At” for “For PK analysis, 5 mg/kg of JH4 in 10% DMSO, 5% Tween 90, and 95% saline solution were intravenously injected and 10 mg/kg of JH4 in 10% NMP and 90% PEG400 solution were orally delivered. At”

[5] = Plasma stability, rat; format: in vitro ADME
Method: as §1

[6] = Plasma protein binding, human; format: in vitro ADME; settings: human, plasma
Method: as §1, with “At” for “For PK analysis, 5 mg/kg of JH4 in 10% DMSO, 5% Tween 90, and 95% saline solution were intravenously injected and 10 mg/kg of JH4 in 10% NMP and 90% PEG400 solution were orally delivered. At”

With `CC1(C)Oc2cc3oc(=O)ccc3cc2C[C@@H]1OC/C=C/c1ccccc1` [SLC-D011] as the compound, how does the remaining at 0.5 h [1] read?
The remaining at 0.5 h was 59.7%.

And the “mRNA expression of progerin” value [2]?
The value was “without alteration of mRNA expression of progerin”.

And the CYP inhibition [3]?
The CYP inhibition was 91.7.

What about the “hERG inhibition (in words)” value [4] of the same compound?
Its value is “without severe hERG inhibition”.

And the “hERG inhibition: % Inhibition” value ([4]; Conc: 1uM)?
Its value is 14.673±4.74%.

What about the “hERG inhibition: % Inhibition” value ([4]; Conc: 10uM) of the same compound?
The value was 66.31±16.77%.

And the remaining at 0.5 h ([5]; 30min)?
The remaining at 0.5 h was 83.6%.

What about the remaining at 2 h ([5]; 120min) of the same compound?
The remaining at 2 h was 75.1%.

And the fraction unbound [6]?
Its fraction unbound is 0.001.
